Assay results taken from patent publication US7279582B2, “Retroviral protease inhibiting compounds” (priority 1995, dated 2007).

Columns and labels:
HIV protease = HIV protease (Human immunodeficiency virus type 1 group M subtype B, UniProt P04585); assay: Fluorogenic assay for screening inhibitors of HIV protease; assay type: biochemical
Experimental: Fluorogenic Assay for Screening Inhibitors of HIV Protease
The inhibitory potency of the compound of the invention can be determined by the following method.
The compound of the invention is dissolved in DMSO and a small aliquot further diluted with DMSO to 100 times the final concentration desired for testing. The reaction is carried out in a 6×50 mm tube in a total volume of 300 microliters. The final concentrations of the components in the reaction buffer are: 125 mM sodium acetate, 1 M sodium chloride, 5 mM dithiothreitol, 0.5 mg/ml bovine serum albumin, 1.3 μM fluorogenic substrate, 2% (v/v) dimethylsulfoxide, pH 4.5. After addition of inhibitor, the reaction mixture is placed in the fluorometer cell holder and incubated at 30° C. for several minutes. The reaction is initiated by the addition of a small aliquot of cold HIV protease. The fluorescence intensity (excitation 340 nm, emmision 490 nM) is recorded as a function of time. The reaction rate is determined for the first six to eight minutes. The observed rate is directly proportional to the moles of substrate cleaved-per unit time. The percent inhibition is 100×(1−(rate in presence of inhibitor)/(rate in absence of inhibitor)).
Fluorogenic substrate: Dabcyl-Gaba-Ser-Gln-Asn-Tyr-Pro-lle-Val-Gln-EDANS wherein DABCYL=4-(4-dimethylamino-phenyl)azobenzoic acid, Gaba=γ-aminobutyric acid, and EDANS=5-((2-aminoethyl)amino)-naphthalene-1-sulfonic acid.

HIVIIIB = assay: Anti-HIV activity in MT4 cells infected with HIVIIIB (MTT readout); assay type: cell-based; conditions: 0% plasma, 5 days, n=4 duplicate determinations
Description: (§1) The anti-HIV activity of the compound of the invention can be determined in MT4 cells according to the following procedure. MT4 cells were infected with cell-free supernatant of HIVIIIB (previously frozen with known 50% tissue culture infectious dose (TCID50) at 0.003 multiplicity of infection (MOI) for one hour. After one hour infection, cells were washed twice to remove residual viruses, resuspended in culture media and seeded into 96-well tissue culture plates at 1×10^4 cells per well with various half-log dilutions of compounds. Uninfected cells are included as toxicity and cell controls. RPMI 1640 media (Gibco) with 10% fetal bovine serum were used as culture media. Various concentrations of human serum (Sigma) 50%, 25% and 12.5% were added to culture media resulting in final concentration of 60%, 35% and 22.5% total serum. All assay plates were incubated in 37 deg. cent. incubator for 5 days. MTT (sigma, 5 mg/ml stock in PBS) was added to all wells at 25 ul per well, incubate for 4 hours. 20% SDS with 0.02 N HCI in water was added at 50 ul per well to lyse cells. Plates incubated overnight for complete lyses were read on a microtitre plate reader at 570/650 nm wavelengths to determine cell optical density (O.D.). Raw data were analysed for percent inhibition by the following formula: O.D. test well−O.D. virus control×100 O.D. cell control−O.D. virus control The 50% effective concentration (EC50) was calculated by the median effect equation (Chou, 1975, Proc. Int. Cong. Pharmacol. 6th p. 619) to determine the efficacy of compound. The 50% lethal concentration (LC50) was calculated using uninfected MT4 cells.
(§2) Under these conditions, the following data were obtained (n=4 duplicate determinations: […]

uninfected MT4 cells = assay type: cell-based; conditions: n=4 duplicate determinations, read-out: LC50 (the source's name)
Description: as §1, §2

[1] = Inhibitor Concentration 0.5 nanomolar

With `Cc1cccc(C)c1OCC(=O)N[C@@H](Cc1ccccc1)[C@@H](O)C[C@H](Cc1ccccc1)NC(=O)[C@H](C(C)C)N1CCC(=O)NC1=O` [Example 25E, (2S,3S,5S)-2-(2,6-Dimethylphenoxyacetyl)amino-3-hydroxy-5-[2S-(1-tetrahydro-pyrimid-2,4-dionyl)-3-methylbutanoyl]amino-1,6-diphenylhexane] the “Percent Inhibition” value (HIV protease; [1]) was 100%, the IC50 (HIVIIIB) was 0.012 µM and the CC50 (uninfected MT4 cells) was 22900 nM.

In the case of `CC(C)[C@@H](C(=O)N[C@@H](Cc1ccccc1)C[C@H](O)[C@H](Cc1ccccc1)NC(=O)O[C@H]1CO[C@H]2OCC[C@H]21)N1CCN(C)C1=O` [Example 4F, (2S,3S,5S)-2-[(3R, 3aS, 6aR)-Bis-tetrahydrofuranyloxy]amino-3-hydroxy-5-[2S-(3-methyl-1-imidazolidin-2-onyl)-3-methylbutanoyl]amino-1,6-diphenylhexane], the “Percent Inhibition” value (HIV protease; [1]) was 49.7%, the IC50 (HIVIIIB) was 0.101 µM and the CC50 (uninfected MT4 cells) was > 100000 nM.

In the case of `Cc1cccc(C)c1OCC(=O)N[C@@H](Cc1ccccc1)[C@@H](O)C[C@H](Cc1ccccc1)NC(=O)[C@@H](N1CCNC1=O)C(C)(C)C` [Example 8, (2S,3S,5S)-2-(2,6-Dimethylphenoxyacetyl)amino-3-hydroxy-5-(2S-(1-imidazolidin-2-onyl)-3,3-dimethylbutanoyl)amino-1,6-diphenylhexane], the “Percent Inhibition” value (HIV protease; [1]) was 55.6%, the IC50 (HIVIIIB) was 0.019 µM and the CC50 (uninfected MT4 cells) was 17800 nM.

With `Cc1cc(N)cc(C)c1OCC(=O)N[C@@H](Cc1ccccc1)[C@@H](O)C[C@H](Cc1ccccc1)NC(=O)[C@H](C(C)C)N1CCNC1=O` [Example 10F, (2S,3S,5S)-2-(4-Amino-2,6-dimethylphenoxyacetyl)amino-3-hydroxy-5-(2S-(1-imidazolidin-2-onyl)-3-methyl-butanoyl)amino-1,6-diphenylhexane] the “Percent Inhibition” value (HIV protease; [1]) was 81.0%, the IC50 (HIVIIIB) was 0.047 µM and the CC50 (uninfected MT4 cells) was 92000 nM.

For `Cc1ccnc(C)c1OCC(=O)N[C@@H](Cc1ccccc1)[C@@H](O)C[C@H](Cc1ccccc1)NC(=O)[C@H](C(C)C)N1CCNC1=O` [Example 15, (2S,3S,5S)-2-(2,4-Dimethyl-pyridin-3-oxy-acetyl)amino-3-hydroxy-5-(2S-(1-imidazolidin-2-onyl)-3-methyl-butanoyl)amino-1,6-diphenylhexane], the “Percent Inhibition” value (HIV protease; [1]) was 48%, the IC50 (HIVIIIB) was 0.119 µM and the CC50 (uninfected MT4 cells) was > 100000 nM.

With `Cc1cccc(C)c1OCC(=O)N[C@@H](Cc1ccccc1)[C@@H](O)C[C@H](Cc1ccccc1)NC(=O)[C@H](C(C)C)N1CCC(=O)NC1=O` [Example 23C, (2S,3S,5S)-2-(2,6-Dimethylphenoxyacetyl)amino-3-hydroxy-5-(2S-(1-dihydropyrimid-2,4-dionyl)-3-methyl-butanoyl)amino-1,6-diphenylhexane] the “Percent Inhibition” value (HIV protease; [1]) was 86.0%.

In the case of `CC(C)[C@@H](C(=O)N[C@@H](Cc1ccccc1)C[C@H](O)[C@H](Cc1ccccc1)NC(=O)O[C@@H]1CCS(=O)(=O)[C@@H]1C(C)C)N1CCCNC1=O` (racemic) [Example 22E, (2S,3S,5S)-2-(cis(±)-1,1-Dioxo-2-isopropyl-3-tetrahydrothiophenoxy)amino-3-hydroxy-5-(2S-(1-tetrahydropyrimid-2-onyl)-3-methylbutanoyl)amino-1,6-diphenylhexane], the “Percent Inhibition” value (HIV protease; [1]) was 71.8%.

`Cc1cccc(C)c1CCC(=O)N[C@@H](Cc1ccccc1)[C@@H](O)C[C@H](Cc1ccccc1)NC(=O)[C@H](C(C)C)N1CCCNC1=O` [Example 20D, (2S,3S,5S)-2-(3-(2,6-Dimethylphenyl)propanoyl)amino-3-hydroxy-5-(2S-(1-tetrahydropyrimidin-2-onyl)-3-methyl-butanoyl)amino-1,6-diphenylhexane] gave an IC50 (HIVIIIB) of 0.283 µM and a CC50 (uninfected MT4 cells) of 24100 nM.

`Cc1ncnc(C)c1OCC(=O)N[C@@H](Cc1ccccc1)[C@@H](O)C[C@H](Cc1ccccc1)NC(=O)[C@H](C(C)C)N1CCNC1=O` [Example 13B, (2S,3S,5S)-2-(4,6-Dimethylpyrimidin-5-oxy-acetyl)amino-3-hydroxy-5-(2S-(1-imidazolidin-2-onyl)-3-methyl-butanoyl)amino-1,6-diphenylhexane] was tested, and the “Percent Inhibition” value (HIV protease; Inhibitor Concentration 1.0 nanomolar) was 56.2%.
